Patent US20240109917A1 (ACTELION PHARMACEUTICALS LTD, priority 2020, published 2024)

Target: His6-TEV-PDGFRβ (557-1016) (Homo sapiens (Human), UniProt P09619)
Test: PDGFRβ HTRF Assay
Format: biochemical
Details: read-out: PDGFR HTRF IC50
Procedure, shortened: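 HTRF KinEASE-TK readout (665/620 nm ratio) of TK-biotin substrate phosphorylation by His-tagged PDGFRβ kinase domain. Enzyme and inhibitor preincubated 30 min, then ATP/substrate added for 3 h at room temperature before 60 min EDTA quench/detection.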

Chain of His6-TEV-PDGFRβ (557-1016) (P09619 557-1016): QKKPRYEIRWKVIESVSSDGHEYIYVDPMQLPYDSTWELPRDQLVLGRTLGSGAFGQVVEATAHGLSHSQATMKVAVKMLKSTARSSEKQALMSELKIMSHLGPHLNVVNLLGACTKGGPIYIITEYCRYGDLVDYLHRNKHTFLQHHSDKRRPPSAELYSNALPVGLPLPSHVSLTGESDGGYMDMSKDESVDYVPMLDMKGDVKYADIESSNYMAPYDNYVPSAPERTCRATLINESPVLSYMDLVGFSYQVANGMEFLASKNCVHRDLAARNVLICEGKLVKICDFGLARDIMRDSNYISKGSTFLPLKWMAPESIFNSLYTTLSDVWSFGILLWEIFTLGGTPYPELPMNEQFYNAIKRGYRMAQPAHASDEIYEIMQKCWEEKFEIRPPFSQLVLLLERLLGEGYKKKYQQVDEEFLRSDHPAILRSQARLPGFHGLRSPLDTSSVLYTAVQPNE

COCCn1cc(-c2cn3ncc(C(=O)Nc4cc(NC(=O)CN5CCCC56CCC6)cnc4C)c3s2)cn1 [Example 332, N-(5-(2-(5-azaspiro[3.4]octan-5-yl)acetamido)-2-methylpyridin-3-yl)-2-(1-(2-methoxyethyl)-1H-pyrazol-4-yl)pyrazolo[5,1-b]thiazole-7-carboxamide]
IC50: 600 pM

Cc1ncc(NC(=O)CN2C[C@H](C)O[C@@H](C)C2)cc1NC(=O)c1cnn2cc(-c3cc[nH]n3)sc12 (relative stereo) [Example 374, N-(5-(2-(trans-2,6-dimethylmorpholino)acetamido)-2-methylpyridin-3-yl)-2-(1H-pyrazol-3-yl)pyrazolo[5,1-b]thiazole-7-carboxamide]
IC50: 400 pM

Cc1ncc(NC(=O)C2CN(C(C)C)C2)cc1NC(=O)c1cnn2cc(-c3cnn4c3OCCC4)sc12 [Example 348, 2-(6,7-dihydro-5H-pyrazolo[5,1-b][1,3]oxazin-3-yl)-N-(5-(1-isopropylazetidine-3-carboxamido)-2-methylpyridin-3-yl)pyrazolo[5,1-b]thiazole-7-carboxamide]
IC50: 400 pM

COc1cc(-c2cn3ncc(C(=O)Nc4cc(NC(=O)CN5CC(C)(C)C5)cnc4C)c3s2)c(OC)nn1 [Example 393, 2-(3,6-dimethoxypyridazin-4-yl)-N-(5-(2-(3,3-dimethylazetidin-1-1)acetamido)-2-methylpyridin-3-yl)pyrazolo[5,1-b]thiazole-7-carboxamide]
IC50: 700 pM

Cc1ncc(NC(=O)CN2C[C@H](CO)OC(C)(C)C2)cc1NC(=O)c1cnn2cc(-c3cnn(C)c3)sc12 [Example 376, (R)—N-(5-(2-(6-(hydroxymethyl)-2,2-dimethylmorpholino)acetamido)-2-methylpyridin-3-yl)-2-(1-methyl-1H-pyrazol-4-yl)pyrazolo[5,1-b]thiazole-7-carboxamide]
IC50: 800 pM

Cc1ncc(NC(=O)CN2C[C@H](C)O[C@@H](C)C2)cc1NC(=O)c1cnn2cc(-c3c(C)n[nH]c3C)sc12 (relative stereo) [Example 373, 2-(3,5-dimethyl-1H-pyrazol-4-yl)-N-(5-(2-(trans-2,6-dimethylmorpholino)acetamido)-2-methylpyridin-3-yl)pyrazolo[5,1-b]thiazole-7-carboxamide]
IC50: 1300 pM

COC/C=C/c1cn2ncc(C(=O)Nc3cc(C(=O)NCCN4CCCC4(C)C)cnc3C)c2s1 [Example 361, (E)-N-(5-((2-(2,2-dimethylpyrrolidin-1-yl)ethyl)carbamoyl)-2-methylpyridin-3-yl)-2-(3-methoxyprop-1-en-1-yl)pyrazolo[5,1-b]thiazole-7-carboxamide]
IC50: 1300 pM

COCCCc1cn2ncc(C(=O)Nc3cc(C(=O)NCCN4CCCC4(C)C)cnc3C)c2s1 [Example 360, N-(5-((2-(2,2-dimethylpyrrolidin-1-yl)ethyl)carbamoyl)-2-methylpyridin-3-yl)-2-(3-methoxypropyl)pyrazolo[5,1-b]thiazole-7-carboxamide]
IC50: 4900 pM

Cc1ncc(C(=O)NCCN2CCCC2(C)C)cc1NC(=O)c1cnn2cc(-c3cnn(Cc4cc(OCc5ccccc5)no4)c3)sc12 [Example 362, 2-(1-((3-(benzyloxy)isoxazol-5-yl)methyl)-1H-pyrazol-4-yl)-N-(5-((2-(2,2-dimethylpyrrolidin-1-yl)ethyl)carbamoyl)-2-methylpyridin-3-yl)pyrazolo[5,1-b]thiazole-7-carboxamide]
IC50: 500 pM

Cc1ncc(NC(=O)CN2CC3CCC(C2)O3)cc1NC(=O)c1cnn2cc(-c3cc[nH]c3)sc12 [Example 366, N-(5-(2-(8-oxa-3-azabicyclo[3.2.1]octan-3-yl)acetamido)-2-methylpyridin-3-yl)-2-(1H-pyrrol-3-yl)pyrazolo[5,1-b]thiazole-7-carboxamide]
IC50: 300 pM

Cc1ncc(NC(=O)CN2CCC(C)(C)C2)cc1NC(=O)c1cnn2cc(-c3cnn(CCO)c3)sc12 [Example 28, N-(5-(2-(3,3-dimethylpyrrolidin-1-yl)acetamido)-2-methylpyridin-3-yl)-2-(1-(2-hydroxyethyl)-1H-pyrazol-4-yl)pyrazolo[5,1-b]thiazole-7-carboxamide]
IC50: 600 pM

COc1ncccc1-c1cn2ncc(C(=O)Nc3cc(NC(=O)CN4C[C@H](C)O[C@@H](C)C4)cnc3C)c2s1 (relative stereo) [Example 368, N-(5-(2-(trans-2,6-dimethylmorpholino)acetamido)-2-methylpyridin-3-yl)-2-(2-methoxypyridin-3-yl)pyrazolo[5,1-b]thiazole-7-carboxamide]
IC50: 300 pM

Cc1ncc(NC(=O)C2CCN(C(C)C)C2)cc1NC(=O)c1cnn2cc(-c3cn(C)nc3C)sc12 (stereo not shown) [Example 355, 2-(1,3-dimethyl-1H-pyrazol-4-yl)-N-(5-(1-isopropylpyrrolidine-3-carboxamido)-2-methylpyridin-3-yl)pyrazolo[5,1-b]thiazole-7-carboxamide]
IC50: 400 pM

COc1ccc(-c2cn3ncc(C(=O)Nc4cc(NC(=O)CN5CC(C)(C)C5)cnc4C)c3s2)cn1 [Example 395, N-(5-(2-(3,3-dimethylazetidin-1-yl)acetamido)-2-methylpyridin-3-yl)-2-(6-methoxypyridin-3-yl)pyrazolo[5,1-b]thiazole-7-carboxamide]
IC50: 400 pM

COCCn1cc(-c2cn3ncc(C(=O)Nc4cc(NC(=O)C5CCN(C(C)C)C5)cnc4C)c3s2)cn1 (stereo not shown) [Example 345, N-(5-(1-isopropylpyrrolidine-3-carboxamido)-2-methylpyridin-3-yl)-2-(1-(2-methoxyethyl)-1H-pyrazol-4-yl)pyrazolo[5,1-b]thiazole-7-carboxamide]
IC50: 1300 pM

COCCn1cc(-c2cn3ncc(C(=O)Nc4cc(NC(=O)CN5CCCCC5)cnc4C)c3s2)cn1 [Example 338, 2-(1-(2-methoxyethyl)-1H-pyrazol-4-yl)-N-(2-methyl-5-(2-(piperidin-1-yl)acetamido)pyridin-3-yl)pyrazolo[5,1-b]thiazole-7-carboxamide]
IC50: 400 pM

COc1ncccc1-c1cn2ncc(C(=O)Nc3cc(NC(=O)CN4C[C@H](CO)OC(C)(C)C4)cnc3C)c2s1 [Example 379, (R)—N-(5-(2-(6-(hydroxymethyl)-2,2-dimethylmorpholino)acetamido)-2-methylpyridin-3-yl)-2-(2-methoxypyridin-3-yl)pyrazolo[5,1-b]thiazole-7-carboxamide]
IC50: 400 pM

Cc1ncc(NC(=O)C2CCN(C(C)C)C2)cc1NC(=O)c1cnn2cc(-c3cnn4c3OCCC4)sc12 (stereo not shown) [Example 350, 2-(6,7-dihydro-5H-pyrazolo[5,1-b][1,3]oxazin-3-yl)-N-(5-(1-isopropylpyrrolidine-3-carboxamido)-2-methylpyridin-3-yl)pyrazolo[5,1-b]thiazole-7-carboxamide]
IC50: 300 pM

Cc1ncc(NC(=O)CN2CCCC23CCC3)cc1NC(=O)c1cnn2cc(-c3cnn(CCO)c3)sc12 [Example 29, N-(5-(2-(5-azaspiro[3.4]octan-5-yl)acetamido)-2-methylpyridin-3-yl)-2-(1-(2-hydroxyethyl)-1H-pyrazol-4-yl)pyrazolo[5,1-b]thiazole-7-carboxamide]
IC50: 400 pM

Cc1ncc(NC(=O)CN2CC(C)(C)C2)cc1NC(=O)c1cnn2cc(-c3cccnc3C)sc12 [Example 390, N-(5-(2-(3,3-dimethylazetidin-1-yl)acetamido)-2-methylpyridin-3-yl)-2-(2-methylpyridin-3-yl)pyrazolo[5,1-b]thiazole-7-carboxamide]
IC50: 600 pM

COc1ncccc1-c1cn2ncc(C(=O)Nc3cc(NC(=O)CN4CC(C)(C)C4)cnc3C)c2s1 [Example 369, N-(5-(2-(3,3-dimethylazetidin-1-yl)acetamido)-2-methylpyridin-3-yl)-2-(2-methoxypyridin-3-yl)pyrazolo[5,1-b]thiazole-7-carboxamide]
IC50: 200 pM

COCCn1cc(-c2cn3ncc(C(=O)Nc4cc(NC(=O)[C@@H]5CCCN5C(C)C)cnc4C)c3s2)cn1 [Example 343, (S)—N-(5-(1-isopropylpyrrolidine-2-carboxamido)-2-methylpyridin-3-yl)-2-(1-(2-methoxyethyl)-1H-pyrazol-4-yl)pyrazolo[5,1-b]thiazole-7-carboxamide]
IC50: 3500 pM
